From publication PMC5447332 (Targeted Oncology, 2017)
“And” between values parts separate entries of the source, which are not always exact repeats. Equal values may be shown once. “Also recorded” adds a separate entry of the source. Read-outs that look alike come from different tables or passages of the source.

Key:
[1] = preclinical studies; ref not given; cited from earlier work
[2] = BEZ235 200 mg twice daily; cited from earlier work
[3] = Pharmacokinetics of BEZ235 in plasma, phase Ib combination with everolimus; assay type: in vivo, human (patients with advanced solid tumors); settings: for Apparent clearance, CL/F / Cmax / Dose / half-life / AUC(0-t) / AUC(0-inf) / Cmax / Tmax: plasma; for half-life / AUC(0-t) / AUC(0-inf) / Cmax / Tmax: human
[4] = whole blood; ref not given; cited from earlier work
[5] = cited from earlier work
[6] = Pharmacokinetics of everolimus in whole blood when co-administered with BEZ235; assay type: in vivo, human (patients with advanced solid tumors)
[7] = BEZ235 200 mg/d + everolimus 2.5 mg/d oral, day 1, mean ± SE
[8] = BEZ235 200 mg/d + everolimus 2.5 mg/d oral, day 28, mean ± SE
[9] = BEZ235 400 mg/d + everolimus 2.5 mg/d oral, day 1, mean ± SE
[10] = BEZ235 400 mg/d + everolimus 2.5 mg/d oral, day 28, mean ± SE
[11] = BEZ235 800 mg/d + everolimus 2.5 mg/d oral, day 1, mean ± SE
[12] = BEZ235 800 mg/d + everolimus 2.5 mg/d oral, day 28, mean ± SE
[13] = po, BEZ235 200 mg/d + everolimus 2.5 mg/d oral, day 1, mean ± SE
[14] = po, BEZ235 200 mg/d + everolimus 2.5 mg/d oral, day 28, mean ± SE
[15] = po, BEZ235 400 mg/d + everolimus 2.5 mg/d oral, day 1, mean ± SE
[16] = po, BEZ235 400 mg/d + everolimus 2.5 mg/d oral, day 28, mean ± SE
[17] = po, BEZ235 800 mg/d + everolimus 2.5 mg/d oral, day 1, mean ± SE
[18] = po, BEZ235 800 mg/d + everolimus 2.5 mg/d oral, day 28, mean ± SE
[19] = everolimus 2.5 mg/d oral + BEZ235 200-800 mg/d, day 1, whole blood, mean ± SE

Cn1c(=O)n(-c2ccc(C(C)(C)C#N)cc2)c2c3cc(-c4cnc5ccccc5c4)ccc3ncc21 [BEZ235, dactolisib]
Aqueous solubility [1]: poor
AUC0-24 [2]: 752.9 ng·h/mL
Apparent clearance, CL/F [3, 7]: 629.6 ± 278.1 L/h
Cmax / Dose [3, 7]: 0.2 ng/mL/mg and 0.2 ± 0.1 ng/mL/mg
Apparent clearance, CL/F [3, 8]: 116.3 ± 24.4 L/h
Cmax / Dose [3, 8]: 1.1 ± 0.6 ng/mL/mg
Apparent clearance, CL/F [3, 9]: 644.3 ± 192.9 L/h
Cmax / Dose [3, 9]: 0.3 ng/mL/mg and 0.3 ± 0.1 ng/mL/mg
Apparent clearance, CL/F [3, 10]: 309.3 ± 241.3 L/h
Cmax / Dose [3, 10]: 0.6 ± 0.5 ng/mL/mg
Apparent clearance, CL/F [3, 11]: 773.9 ± 262.1 L/h
Cmax / Dose [3, 11]: 0.3 ng/mL/mg and 0.3 ± 0.1 ng/mL/mg
Apparent clearance, CL/F [3, 12]: 355.9 ± 246.6 L/h
Cmax / Dose [3, 12]: 1.1 ± 0.7 ng/mL/mg
Drug levels at steady state relative to single dose administration ([3]; BEZ235 200-800 mg): ~3 fold
half-life ([3]; oral, Steady-state half-life, range over 200-800 mg/day): 15 to 43 h
AUC(0-t) ([3]; po, AUC 0-24, BEZ235 200 mg/d + everolimus 2.5 mg/d oral, day 1, mean ± SE): 433 ± 96 ng·h/mL
AUC(0-t) ([3]; po, AUC 0-24, BEZ235 200 mg/d + everolimus 2.5 mg/d oral, day 28, mean ± SE): 1470 ± 515 ng·h/mL
AUC(0-t) ([3]; po, AUC 0-24, BEZ235 400 mg/d + everolimus 2.5 mg/d oral, day 1, mean ± SE): 741 ± 171 ng·h/mL
AUC(0-t) ([3]; po, AUC 0-24, BEZ235 400 mg/d + everolimus 2.5 mg/d oral, day 28, mean ± SE): 1460 ± 1250 ng·h/mL
AUC(0-t) ([3]; po, AUC 0-24, BEZ235 800 mg/d + everolimus 2.5 mg/d oral, day 1, mean ± SE): 2080 ± 666 ng·h/mL
AUC(0-t) ([3]; po, AUC 0-24, BEZ235 800 mg/d + everolimus 2.5 mg/d oral, day 28, mean ± SE): 7800 ± 5610 ng·h/mL
AUC(0-inf) [3, 13]: 468 ± 118 ng·h/mL
AUC(0-inf) [3, 14]: 1490 ± 691 ng·h/mL
AUC(0-inf) [3, 15]: 831 ± 163 ng·h/mL
AUC(0-inf) [3, 16]: 2710 ± 2340 ng·h/mL
AUC(0-inf) [3, 17]: 2170 ± 675 ng·h/mL
AUC(0-inf) [3, 18]: 8880 ± 6590 ng·h/mL
Cmax [3, 13]: 45.2 ± 11.4 ng/mL
Cmax [3, 14]: 214 ± 114 ng/mL
Cmax [3, 15]: 102 ± 22.4 ng/mL
Cmax [3, 16]: 227 ± 198 ng/mL
Cmax [3, 17]: 243 ± 52.7 ng/mL
Cmax [3, 18]: 880 ± 570 ng/mL
half-life ([3]; po, Terminal half-life, BEZ235 200 mg/d + everolimus 2.5 mg/d oral, day 1, mean ± SE): 3.2 ± 1 h
half-life ([3]; po, Terminal half-life, BEZ235 200 mg/d + everolimus 2.5 mg/d oral, day 28 (steady state), mean ± SE): 19.2 ± 2.5 h
half-life ([3]; po, Terminal half-life, BEZ235 400 mg/d + everolimus 2.5 mg/d oral, day 1, mean ± SE): 8.6 ± 1.5 h
half-life ([3]; po, Terminal half-life, BEZ235 400 mg/d + everolimus 2.5 mg/d oral, day 28 (steady state), mean ± SE): 43.4 ± 10.8 h
half-life ([3]; po, Terminal half-life, BEZ235 800 mg/d + everolimus 2.5 mg/d oral, day 1, mean ± SE): 5.9 ± 0.7 h
half-life ([3]; po, Terminal half-life, BEZ235 800 mg/d + everolimus 2.5 mg/d oral, day 28 (steady state), mean ± SE): 15 ± 6.4 h
Tmax [3, 13]: 3.8 ± 1.6 h
Tmax [3, 14]: 2.7 ± 0.7 h
Tmax [3, 15]: 2.5 ± 0.9 h
Tmax [3, 16]: 1.5 ± 0.5 h
Tmax [3, 17]: 2.6 ± 0.8 h
Tmax [3, 18]: 2 h
Accumulation higher than anticipated ([3]; multiple dosing, day 28): 2–3 fold
Oral bioavailability (oral availability) ([3]; patients, SDS sachet, this study): quite low; also recorded: remained low
Average plasma concentration ([3]; steady state, doses of 200 to 800 mg/day): 61 to 324 ng/mL

CO[C@H]1C[C@@H]2CC[C@@H](C)[C@@](O)(O2)C(=O)C(=O)N2CCCC[C@H]2C(=O)O[C@H]([C@H](C)C[C@@H]2CC[C@@H](OCCO)[C@H](OC)C2)CC(=O)[C@H](C)/C=C(\C)[C@@H](O)[C@@H](OC)C(=O)[C@H](C)C[C@H](C)/C=C/C=C/C=C/1C [Everolimus, everolimus]
Binding to erythrocytes [4]: 85%
Reported everolimus clearance ([5]; 5 mg dosed alone): 21.3 L/h
Reported everolimus clearance ([5]; 10 mg dosed alone): 27.3 L/h
Median Tmax ([5]; everolimus after oral administration, ref not given): 1 to 2 h
Dose-normalized Cmax ([5]; everolimus dosed alone, cancer patients): 6.3 ng/mL
Oral bioavailability ([5]; everolimus, ref not given): low
Increase in dose-normalized AUC0-24 (exposure), combination with BEZ235 compared to everolimus alone ([6]; everolimus 2.5 mg/d + BEZ235 vs reported everolimus alone (ref 23)): 1.7 fold
Apparent clearance, CL/F [6, 19]: 24.76 ± 2.91 L/h
Cmax / Dose [6, 19]: 5.63 ± 0.6 ng/mL/mg
Cmax / Dose ([6]; everolimus 2.5 mg/d oral + BEZ235 200-800 mg/d, day 28, whole blood, mean ± SE): 12.67 ± 2.96 ng/mL/mg
